The results in this text go back to EP1541559A1, “5-SUBSTITUTED ISOQUINOLINE DERIVATIVE” (Asahi Kasei Pharma Corporation, priority 2002, dated 2004).

pIC50: −log10 of the molar value. Where a name gives a salt, the structure may show the parent alone. Read-outs that look alike come from different tables or passages of the source. Some results are limits rather than exact numbers.

Experiment [1] concerns myosin regulatory light chain. In words: Action on amount of phosphorylated myosin regulatory light chain in the cells (Test Example 1). The format is cell-based, human. The note with it: neutrophils of healthy volunteers, reaction with test compound at 25°C for 5 minutes, read-out: Inhibition of myosin regulatory light chain phosphorylation (IC50: µM). As for the experimental part: The neutrophils were washed with PBS(-) and resuspended in Hanks' Balanced Salt Solution (HBSS+, Gibco) to prepare a cell suspension (8 x 10^6/ml). The cell suspension was diluted to 5 x 10^6/ml, introduced into Eppendorf tubes in a volume of 0.4 ml each, then 0.1 ml each of solutions of a test compound at various concentrations were added to the suspension and allowed to react at 25°C for 5 minutes. After the reaction, 0.1 ml of trichloroacetic acid solution was added to each reaction, the reaction mixture was gently shaken and centrifuged at 12,000 rpm (4°C, 5 minutes), and the supernatant was removed. Subsequently, 3 μl of 1 M Tris solution was added to the residue, the mixture was further mixed with 50 μl of extraction buffer (8 M urea, 0.02% 2-mercaptoethanol, 0.002% bromophenol blue) and left stand at room temperature for 1 hour. Then, the reaction mixture was loaded on a spin column (0.45 μm, Millipore) to remove the insoluble solids and a sample buffer for SDS polyacrylamide gel electrophoresis (25 mM, Tris-HCl pH 6.8, 2.5% 2-mercaptoethanol, 2% sodium dodecylsulfate, 5% sucrose, 0.002% bromophenol blue as final concentrations) was added, and 10 μl of each sample was subjected to electrophoresis. […] J. Physiol., 274, […]-[…] (1998)), which specifically recognize the phosphorylated myosin regulatory light chain, and donkey anti-mouse IgG (Chemicon) conjugated with horseradish peroxidase (HRP-labeled). The band of the phosphorylated myosin regulatory light chain was detected on a film by using ECL Plus Kit (Amersham Pharmacia Biotech). This band was subjected to quantification using a densitometer. By using this value, the inhibitory ratio (%) for phosphorylation of the myosin regulatory light chain was calculated by using the following equation.

For the next experiment, the system named is Neutrophils. Briefly: Neutrophil migration inhibitory action, Boyden Chamber, FMLP (Test Example 5). In kind it is cell-based, human. The note with it: FMLP (1 µM), migration at 37°C for 30 minutes, read-out: Neutrophil migration inhibition IC50. As for the experimental part:
Neutrophils were isolated from 50 to 100 ml of peripheral blood collected from healthy donors by the method described in Test Example 1 to obtain a cell suspension (8 x 10^6/ml). Subsequently, solutions of a test compound at various concentrations were introduced into wells of a 96-well plate in a volume of 125 µl per well, the cell suspension of an equivalent volume was added to it and the plate was preincubated at room temperature for 5 minutes. During the preincubation, FMLP (1 µM, Sigma) solution was added to the lower chamber to set Boyden Chamber, the preincubated cell suspension was added to the upper chamber in a volume of 200 µl per well, and the cells were allowed to migrate at 37°C under 5% carbon dioxide for 30 minutes. The filter after the migration was collected, and the non-migrated cells adhered to the surface that faced the upper chamber were carefully wiped off. Then, the migrated cells on the back surface were stained with DifQuick dye solution (International Reagents), washed with water and dried, and then absorbance was measured at 595 nm. The inhibition ratio against migration (%) of a test compound was calculated by using the following equation: Migration inhibition ratio (%) = (1 -Absorbance of the group with addition of test compound /Absorbance of the group without addition of test compound) x 100 [formula]

The next experiment deals with thoracic aorta. Briefly: Vasoconstriction inhibitory action on aorta rings constricted with phenylephrine (Test Example 2). Details: species or system Rats (Wistar, 11-week old). The note with it: for vasoconstriction inhibitory action: result in words, aorta constricted with phenylephrine (1 µM). The text has this: Rats (Wistar, 11-week old) were bleeded to death and laparotomized to take out the thoracic aorta.

Where [2] appears, read: Homo sapiens, Neutrophil, 5 min.
Setting [3] is: Homo sapiens, Neutrophil, 0.5 h.

As a reminder, the IC50 is the concentration at which inhibition is half-maximal. For `N[C@H]1CC[C@@H](Nc2cccc3cnccc23)CC1` [Example 23, Cis-N-(5-Isoquinolyl)-1,4-cyclohexanediamine hydrochloride], the IC50 in experiment [1] (setting [2]) was 1 to 20 µM. The pIC50 in the experiment on Neutrophils (setting [3]) was 5.00 to 6.00.
Take `CSc1cncc2cccc(NC3CCNCC3)c12.Cl` [Example 105, 4-(4-Methylthio-5-isoquinolyl)aminopiperidine hydrochloride]: in experiment [1] (setting [2]), the IC50 was at most 40 µM. Besides, the vasoconstriction inhibitory action entry with thoracic aorta was “significant vasoconstriction inhibitory action”.
With `NCCCNc1cccc2cnccc12` [Example 16, N-(5-Isoquinolyl)-1,3-propylenediamine hydrochloride], in experiment [1] (setting [2]), the IC50 fell in the range of 20 to 40 µM. The pIC50 in the experiment on Neutrophils (setting [3]) is 4.40 to 5.00.
On to `c1cc(OC2CCNCC2)c2ccncc2c1` [Example 27, 4-[(5-Isoquinolyl)oxy]piperidine hydrochloride], for which, in experiment [1] (setting [2]), the IC50 fell in the range of 1 to 20 µM. Further, the pIC50 with Neutrophils (setting [3]) is at least 4.40.
As to `N[C@H]1CC[C@H](Nc2cccc3cnccc23)CC1` [Example 24, Trans-N-(5-isoquinolyl)-1,4-cyclohexanediamine hydrochloride], the IC50 in experiment [1] (setting [2]) lay in the range of 1 to 20 µM. The pIC50 with Neutrophils (setting [3]) is 5.00 to 6.00.
Take `CC1CNCCN1S(=O)(=O)c1cccc2cnccc12` (centres unmarked) [Example H-7, 1-(5-isoquinolinesulfonyl)-2-methylpiperazine, reference compound]: the inhibition at 1 µM with thoracic aorta (Rattus norvegicus, read-out: Vasoconstriction inhibitory action (relaxation ratio) (%)) was 22%.
As for `NCCCCNc1cccc2cnccc12` [Example 18, N-(5-Isoquinolyl)-1,4-butylenediamine hydrochloride], the IC50 in experiment [1] (setting [2]) lay in the range of 20 to 40 µM. The pIC50 in the experiment on Neutrophils (setting [3]) is 4.40 to 5.00.
Regarding `Cl.NCCCN(CCS(=O)(=O)c1ccccc1)S(=O)(=O)c1cccc2c(O)nccc12` [Example 13, N-[(1-Hydroxy-5-isoquinolyl)sulfonyl]-N-[2-(phenylsulfonyl)ethyl]-1,3-propylenediamine hydrochloride], the IC50 in experiment [1] (setting [2]) turned out to be 20 µM. Moreover, the pIC50 in the experiment with Neutrophils (setting [3]) was 5.00 to 6.00. Further, the vasoconstriction inhibitory action result with thoracic aorta is given as “significant vasoconstriction inhibitory action”.
For the molecule `Fc1cncc2cccc(NC3CCNCC3)c12` [Example 104, 4-(4-Fluoro-5-isoquinolyl)aminopiperidine hydrochloride], the IC50 in experiment [1] (setting [2]) was at most 40 µM; in experiment [1] (hydrochloride) it was at most 20 µM. Further, in the experiment with Neutrophils (setting [3]), the pIC50 is at least 4.40.
Regarding `NCCCN(CCCCc1ccccc1)S(=O)(=O)c1cccc2cnccc12` [Example 4, N-[(5-Isoquinolyl)sulfonyl]-N-(4-phenylbutyl)-1,3-propylenediamine hydrochloride], in experiment [1] (setting [2]), the IC50 is 30 µM. Besides, the pIC50 with Neutrophils (setting [3]) is 5.00 to 6.00.
Taken in the same sequence, the figures for `NC1CCCC(Nc2cccc3cnccc23)C1` (centres unmarked) [Example 25, N-(5-Isoquinolyl)-1,3-cyclohexanediamine hydrochloride] were 20 to 40 µM and 4.40 to 5.00.
Turning to `NCCN(CCCc1ccccc1)S(=O)(=O)c1cccc2cnccc12` [Example 30, N-[(5-isoquinolyl)sulfonyl]-N-(3-phenylpropyl)ethylenediamine], the IC50 in experiment [1] (setting [2]) is 20 to 40 µM. In addition, the pIC50 with Neutrophils (setting [3]) is 5.00 to 6.00.
In the case of `Cc1cnc(O)c2cccc(N[C@H]3CC[C@H](N)CC3)c12` [Example 160, Trans-N-(1-hydroxy-4-methyl-5-isoquinolyl)-1,4-cyclohexanediamine hydrochloride], the figures for the half-maximal inhibitory concentration (IC50) in experiment [1] (setting [2]) and in experiment [1] (hydrochloride) were at most 40 µM and at most 20 µM, respectively. Further, the pIC50 in the experiment on Neutrophils (setting [3]) was at least 4.40.
Taken in the same sequence, the figures for `c1cc(NCC2CCNCC2)c2ccncc2c1` [Example 21, 4-(5-Isoquinolyl)aminomethylpiperidine hydrochloride] were at most 40 µM, at most 20 µM and 4.40 to 5.00.
Turning to “4-(4-Cyano-5-isoquinolyl)aminopiperidine hydrochloride [Example 143]”, the IC50 in experiment [1] was at most 40 µM.
Turning to `NCCN(CCS(=O)(=O)c1ccccc1)S(=O)(=O)c1cccc2c(N)nccc12` [Example 9, N-[(1-Amino-5-isoquinolyl)sulfonyl]-N-[2-(phenylsulfonyl)ethyl]ethylenediamine hydrochloride], in experiment [1] (setting [2]), the IC50 is 15 µM. The pIC50 in the experiment on Neutrophils (setting [3]) was 5.00 to 6.00.
For `COC(=O)c1cccc(CCCN(CCCN)S(=O)(=O)c2cccc3cnccc23)c1` [Example 131, N-[(5-Isoquinolyl)sulfonyl]-N-[3-(3-methoxycarbonyl)phenylpropyl]-1,3-propylenediamine hydrochloride], the half-maximal inhibitory concentration (IC50) in experiment [1] (hydrochloride) was at most 20 µM. Besides, in the experiment on Neutrophils, the pIC50 is at least 4.40.
With `Nc1cncc2cccc(O[C@H]3CC[C@H](N)CC3)c12` [Example 137, Trans-4-[(4-amino-5-isoquinolyl)oxy]cyclohexylamine hydrochloride], the IC50 in experiment [1] (setting [2]) was at most 40 µM; in experiment [1] (hydrochloride), at most 20 µM. The pIC50 in the experiment on Neutrophils (setting [3]) was at least 4.40.
On to `NCCCN(CCCc1cccc(C(=O)O)c1)S(=O)(=O)c1cccc2cnccc12` [Example 128, N-[(5-Isoquinolyl)sulfonyl]-N-[3-(3-carboxy)phenylpropyl]-1,3-propylenediamine hydrochloride], for which the IC50 in experiment [1] (hydrochloride) was at most 20 µM. Besides, the pIC50 in the experiment with Neutrophils is at least 4.40.
Take `NCCCN(CCS(=O)(=O)c1ccccc1)S(=O)(=O)c1cccc2cnccc12` [Example 6, N-[(5-Isoquinolyl)sulfonyl]-N-[2-(phenylsulfonyl)ethyl]-1,3-propylenediamine hydrochloride]: the 50% inhibitory concentration (IC50) in experiment [1] (setting [2]) was 20 µM. Also, in the experiment with Neutrophils (setting [3]), the pIC50 is 5.00 to 6.00.
Taken in the same sequence, the figures for `NCCCN(CCCc1ccccc1)S(=O)(=O)c1cccc2c(O)nccc12` [Example 14, N-[(1-Hydroxy-5-isoquinolyl)sulfonyl]-N-(3-phenylpropyl)-1,3-propylenediamine hydrochloride] were 20 to 40 µM and 5.00 to 6.00.
With `COC(=O)c1ccc(CCCN(CCCN)S(=O)(=O)c2cccc3cnccc23)cc1` [Example 130, N-[(5-Isoquinolyl)sulfonyl]-N-[3-(4-methoxycarbonyl)phenylpropyl]-1,3-propylenediamine hydrochloride], the IC50 in experiment [1] (hydrochloride) is at most 20 µM.
For the molecule `Nc1nccc2c(NC3CCNCC3)cccc12` [Example 142, 4-(1-Amino-5-isoquinolyl)aminopiperidine hydrochloride], the IC50 in experiment [1] (setting [2]) is at most 40 µM; in experiment [1] (hydrochloride) it was at most 20 µM.
Taken in the same sequence, the figures for `N#Cc1cncc2cccc(O[C@H]3CC[C@H](NCCO)CC3)c12` [Example 156, Trans-1-[(4-cyano-5-isoquinolyl)oxy]-4-[(2-hydroxyethyl)amino]cyclohexane hydrochloride] were at most 40 µM and at most 20 µM.
Regarding `C=Cc1cncc2cccc(NC3CCNCC3)c12.Cl` [Example 112, 4-(4-Vinyl-5-isoquinolyl)aminopiperidine hydrochloride], the figures for the concentration for half-maximal inhibition (IC50) in experiment [1] (setting [2]) and in experiment [1] (hydrochloride) were at most 40 µM and at most 20 µM, respectively. For the same molecule, the pIC50 with Neutrophils (setting [3]) is at least 4.40. The vasoconstriction inhibitory action entry with thoracic aorta is given as “significant vasoconstriction inhibitory action”.
With `CCc1cncc2cccc(O[C@H]3CC[C@H](N)CC3)c12` [Example 138, Trans-4-[(4-ethyl-5-isoquinolyl)oxy]cyclohexylamine hydrochloride], the IC50 is at most 40 µM in experiment [1] (setting [2]) and at most 20 µM in experiment [1] (hydrochloride).
Consider `NCc1cccc(CNc2cccc3cnccc23)c1` [Example 26, N-(5-Isoquinolyl)-1,3-xylylenediamine hydrochloride], for which, in experiment [1] (setting [2]), the half-inhibitory concentration (IC50) was in the range of 20 to 40 µM. For the same molecule, in the experiment with Neutrophils (setting [3]), the pIC50 was 4.40 to 5.00.
With `c1cc(NCC2CCCNC2)c2ccncc2c1` (centres unmarked) [Example 22, 3-(5-Isoquinolyl)aminomethylpiperidine hydrochloride], the IC50 in experiment [1] (setting [2]) is at most 40 µM.
